Measured values reported in publication PMC10877733, “Discovery and Characterization of VU0542270, the First Selective Inhibitor of Vascular Kir6.1/SUR2B KATP Channels” (Molecular Pharmacology, 2024).
Values joined by “and” are separate entries in the source; they are usually repeats but may differ in a detail not shown here. Equal entries are not always repeated.

What was measured:
[1] = Brain homogenate binding by equilibrium dialysis, rat; format: in vitro ADME; conditions: read-out: Fu, brain (rat)
Description: Determination of VU0542270 fu in […] from mouse and rat was conducted using the same methodology and procedure as described for plasma protein binding assay with the following modifications: 1) a final compound concentration of 1 μM was used, and 2) naïve rat brains were homogenized in DPBS (1:3 composition of brain:DPBS, w/w) using a Mini-Bead Beater machine to obtain brain homogenate.
The diluted fraction unbound (fu2) in brain was calculated as (analyte to IS MS peak area ratio from Trans-buffer side)/(analyte to IS MS peak area ratio from Cis-brain homogenate side). Undiluted fraction unbound for the brain was calculated using the following equation: [drawing 1]
Mean values for each species were calculated from three replicates.

[2] = target: T1, Kir6.1/SUR2B (Homo sapiens, UniProt O60706); assay: Whole-cell patch clamp electrophysiology, T-Rex-HEK293-Kir6.1/SUR2B cells; format: cell-based
T1 construct: expressed in transfected cells; also transiently transfected HEK293T
T1 sequence (O60706 1-1549 isoform O60706-2, species assumed): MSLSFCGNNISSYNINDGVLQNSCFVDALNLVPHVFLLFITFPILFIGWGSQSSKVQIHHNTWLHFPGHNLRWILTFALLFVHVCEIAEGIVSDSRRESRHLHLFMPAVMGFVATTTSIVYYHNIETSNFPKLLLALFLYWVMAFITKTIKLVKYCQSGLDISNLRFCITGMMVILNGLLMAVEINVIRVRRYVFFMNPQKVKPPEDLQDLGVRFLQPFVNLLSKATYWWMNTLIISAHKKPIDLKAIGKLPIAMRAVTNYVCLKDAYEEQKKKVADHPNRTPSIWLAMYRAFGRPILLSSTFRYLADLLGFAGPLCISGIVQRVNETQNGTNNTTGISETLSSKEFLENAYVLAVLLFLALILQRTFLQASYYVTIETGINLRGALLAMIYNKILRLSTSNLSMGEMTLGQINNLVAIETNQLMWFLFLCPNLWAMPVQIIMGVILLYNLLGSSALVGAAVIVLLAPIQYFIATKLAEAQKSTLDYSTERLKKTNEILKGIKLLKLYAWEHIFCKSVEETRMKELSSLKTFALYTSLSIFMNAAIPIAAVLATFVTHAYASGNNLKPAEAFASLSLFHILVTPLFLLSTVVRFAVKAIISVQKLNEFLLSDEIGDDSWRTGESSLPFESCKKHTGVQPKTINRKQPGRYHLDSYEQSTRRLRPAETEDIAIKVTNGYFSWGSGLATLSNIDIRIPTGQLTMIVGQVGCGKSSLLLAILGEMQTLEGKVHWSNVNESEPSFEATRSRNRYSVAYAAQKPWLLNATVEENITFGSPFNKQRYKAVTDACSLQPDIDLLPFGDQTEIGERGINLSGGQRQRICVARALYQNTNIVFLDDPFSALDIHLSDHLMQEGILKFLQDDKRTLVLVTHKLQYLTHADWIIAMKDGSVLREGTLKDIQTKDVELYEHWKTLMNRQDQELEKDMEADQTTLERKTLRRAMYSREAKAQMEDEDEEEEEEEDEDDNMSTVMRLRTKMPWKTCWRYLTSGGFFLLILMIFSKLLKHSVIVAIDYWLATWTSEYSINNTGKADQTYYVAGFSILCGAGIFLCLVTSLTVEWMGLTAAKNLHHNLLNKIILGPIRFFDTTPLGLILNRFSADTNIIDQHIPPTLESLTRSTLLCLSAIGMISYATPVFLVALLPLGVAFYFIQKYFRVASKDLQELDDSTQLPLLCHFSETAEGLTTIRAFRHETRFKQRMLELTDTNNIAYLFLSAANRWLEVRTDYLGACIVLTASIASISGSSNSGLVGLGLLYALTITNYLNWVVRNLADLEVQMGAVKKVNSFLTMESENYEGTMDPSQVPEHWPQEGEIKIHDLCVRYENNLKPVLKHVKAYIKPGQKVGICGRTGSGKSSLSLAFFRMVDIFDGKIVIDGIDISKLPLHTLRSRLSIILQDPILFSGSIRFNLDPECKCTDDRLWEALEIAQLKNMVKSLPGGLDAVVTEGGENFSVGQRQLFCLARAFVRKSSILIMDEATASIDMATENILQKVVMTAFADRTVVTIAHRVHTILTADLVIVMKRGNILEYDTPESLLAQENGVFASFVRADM
T1 sequence (Q15842 whole entry partner, species assumed): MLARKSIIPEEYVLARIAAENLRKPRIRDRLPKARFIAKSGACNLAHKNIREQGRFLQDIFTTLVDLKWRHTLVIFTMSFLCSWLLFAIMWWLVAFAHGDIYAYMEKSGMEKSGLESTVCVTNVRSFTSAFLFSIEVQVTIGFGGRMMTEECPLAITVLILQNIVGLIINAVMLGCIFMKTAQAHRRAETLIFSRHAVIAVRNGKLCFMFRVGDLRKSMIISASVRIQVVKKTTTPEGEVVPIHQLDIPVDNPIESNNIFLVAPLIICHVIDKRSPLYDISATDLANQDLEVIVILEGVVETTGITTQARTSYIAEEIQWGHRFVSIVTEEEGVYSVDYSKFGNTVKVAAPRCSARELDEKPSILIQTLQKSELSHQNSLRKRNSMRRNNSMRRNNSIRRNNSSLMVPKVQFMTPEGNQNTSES
Description: T-Rex-HEK293-Kir6.1/SUR2B cells were plated into tissue culture-treated 35-mm polystyrene dishes at a density of 250,000 cells and cultured in a 5% CO2 incubator at 37°C. Whole-cell patch-clamp recordings were performed 48 hours after plating. Cells were dissociated on the experiment day and plated on poly-L-lysine–coated coverslips and allowed to recover for at least 1 hour in a 37°C/5% CO2 incubator before beginning experiments. Patch electrodes (2 to 3 MΩ) were filled with an intracellular solution containing 130 mM KCl, 2 mM MgCl2, 1 mM EGTA, 20 mM HEPES-free acid, and 2 mM Na2ATP (Roche Diagnostics, Risch-Rotkreuz, Switzerland), pH 7.3, titrated with KOH, and osmolarity 275 mOsmol/kg of water (adjusted with sucrose). The standard bath solution contained 135 mM NaCl, 5 mM KCl, 2 mM CaCl2, 1 mM MgCl2, 5 mM glucose, and 10 mM HEPES-free acid, pH 7.4, titrated with NaOH. Serial dilutions of compounds were first made in DMSO and then in bath solution so that the final DMSO concentration was 0.1% v/v across all test doses. Macroscopic currents were recorded under voltage-clamp conditions using an Axopatch 200B Amplifier (Molecular Devices, Sunnyvale, CA). Data were collected at 5 kHz and filtered at 1 kHz. […] IC50 values were determined by fitting the Hill equation to CRCs using variable-slope nonlinear regression analyses. […]

[3] = target: T2, Kir2.1 (Homo sapiens, UniProt P63252); assay: Thallium flux selectivity assay Kir2.1; format: cell-based
T2 construct: expressed in transfected cells
T2 sequence (P63252 1-427): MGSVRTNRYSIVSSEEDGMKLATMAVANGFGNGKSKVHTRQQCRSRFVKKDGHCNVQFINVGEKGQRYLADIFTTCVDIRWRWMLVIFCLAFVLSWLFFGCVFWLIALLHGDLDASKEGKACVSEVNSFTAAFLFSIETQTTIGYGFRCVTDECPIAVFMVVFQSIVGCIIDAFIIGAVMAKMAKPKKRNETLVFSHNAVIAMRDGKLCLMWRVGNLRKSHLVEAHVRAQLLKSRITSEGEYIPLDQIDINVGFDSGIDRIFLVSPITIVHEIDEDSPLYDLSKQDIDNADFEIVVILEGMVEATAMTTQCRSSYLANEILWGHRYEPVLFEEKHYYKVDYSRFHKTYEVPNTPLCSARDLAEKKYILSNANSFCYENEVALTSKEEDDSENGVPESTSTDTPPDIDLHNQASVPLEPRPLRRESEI
Description: (§1) Quantitative thallium flux assays of Kir6.1/SUR2B activity were performed essentially as described previously for Kir6.2/SUR1 ([Raphemot et al., 2014]; [Kharade et al., 2019]). Stable T-Rex-HEK293-Kir6.1/SUR2B cells or transiently transfected HEK293T cells were plated in polyamine-coated, clear-bottomed, black-walled 384-well plates and were cultured (37°C/5% CO2) overnight in Dulbecco’s modified Eagle’s medium (Gibco, Carlsbad, CA, 11995-065) containing 10% FBS (2 mM Penicillin-Streptomycin). The following day, cells were washed with assay buffer (i.e., Hanks’ balanced salt solution/20 mM HEPES) and loaded for 1 hour with thallium sensor dye Brilliant Thallium (Ion Bioscience, San Marcos, TX) at room temperature. Dye-loaded cells were washed with assay buffer and transferred to a Panoptic Kinetic Imaging Plate Reader (Wavefront Bioscience, Franklin, TN). Control and test compound treatments were for 4 minutes prior to adding 0.5 mM chloride-free thallium stimulus buffer (Ion Bioscience) to initiate thallium flux. […] Selectivity assays against other Kir channels were performed essentially as described previously ([Kharade et al., 2018]; [McClenahan et al., 2022]).

[4] = target: T3, Kir4.2 (Homo sapiens, UniProt Q99712); assay: Thallium flux selectivity assay Kir4.2; format: cell-based
T3 construct: expressed in transfected cells
T3 sequence (Q99712 1-375): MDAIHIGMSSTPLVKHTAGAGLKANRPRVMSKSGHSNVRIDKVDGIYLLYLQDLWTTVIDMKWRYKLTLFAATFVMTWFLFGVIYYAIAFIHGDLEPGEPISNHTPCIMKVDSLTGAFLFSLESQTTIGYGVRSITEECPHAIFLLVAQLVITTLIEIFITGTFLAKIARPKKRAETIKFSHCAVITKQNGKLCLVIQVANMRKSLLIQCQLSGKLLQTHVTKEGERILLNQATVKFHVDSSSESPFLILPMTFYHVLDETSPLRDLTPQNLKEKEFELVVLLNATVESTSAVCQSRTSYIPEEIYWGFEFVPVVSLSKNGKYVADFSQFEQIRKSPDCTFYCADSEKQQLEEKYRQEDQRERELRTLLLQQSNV
Description: as §1

fraction unbound at 6 h, 1 µM [1]: 0.02 | IC50 ([2]; 1 µM pinacidil-activated, normalized to maximal inhibition by 10 µM VU0542270, read-out: Kir6.1/SUR2B IC50, whole-cell current): ~279 nM and 278 nM | inhibition of KATP current ([2]; 10 µM compound in continued presence of 1 µM pinacidil): complete inhibition | IC50 [3]: > 30000 nM | IC50 [4]: > 30000 nM
SMILES: Cc1nc(-c2cccs2)sc1CNC(=O)Nc1cccs1 [VU0542270]
